Laboratory results taken from patent publication US20240058329A1, “OPHTHALMIC COMPOSITION OF RIFAMYCIN, AND USE THEREOF” (BNC KOREA CO., LTD., priority 2020, published 2024).
Where two headings read alike, the source gives them in different places. Marks after values point to notes of the source that are not given here.

Key:
[1] = Rabbit; 0.5%, 50 μL, 250 μg; Sigurdsson et al. (2007); cited from earlier work
[2] = Retina exposure level of rifampicin after application of topical eye drops (3 or 10 drops), LC/MS; format: in vivo, Sprague-Dawley rats; conditions: for Drug amount detected in retina: Rat, 0.25%, present study; for Rifampicin extracted from retina: rat, average of n = 3
Description: The remaining two rats received the same application, but 10 drops of the eye drops, in each eye under isoflurane sedation. A single drop contained 5 μL of the above-described formulation, and application of each drug drop was carried out with intervals of 30 minutes. After the eye drop application, the retina was excised from each rat under a dissection microscope. In addition, “non-treated” negative controls were used, and the retina was excised from two rats without performing any treatments on the rats. The retina was placed in a 1.5-ml microcentrifuge tube (1 retina/tube), and was fully washed with DPBS. After completion of the washing procedures, the retinal tissues in the microcentrifuge tube were frozen in dry ice, and were then preserved for quantification by LC/MS analysis.

[3] = system: oxygen-induced retinopathy rat models; assay: Neovascularization in retina quantified by capillaries in histology sections; format: in vivo, Sprague-Dawley rat; conditions: n = 3, vehicle only control 16.3
Description: Oxygen-induced retinopathy rat models were produced according to the protocols of Yanni et al. (2010) and Dorfmann et al. (2008). Sprague-Dawley rat babies (and their nursing mothers) were exposed to a cycling oxygen environment (80% and 21%, about one day for each) for 15 days after starting from the day of birth (Day 0). On Day 15 (P15), the animals were moved to room air. […] An eye drop formulation shown as Example 1 A in Table 1, or a vehicle only was administered to the eyes of the baby rats every day, for 5 days between P15 and P19, in the morning, about the noon, and in the evening. […] On P20, all of the animals were euthanized, and the retina was visualized as histology sections. In those histology sections, capillaries in the retinal tissues in 3 eye balls (AMD 101 topical application, AMD 101 SC injection administration group, and non-induction of retinopathy) or 5 eye balls (control administration group of a vehicle only) were counted, so that neovascularization was quantified. These eye balls were selected from different animals in the above-described administration groups. Representative images of the histology sections are shown (see FIGS. 1A to 1H).

[4] = 3% rifampicin solution, boric acid buffer
Description: In the present example, the pH value was set to be pH 2 to 12, and the concentration of a nonionic surfactant was set to be 0.001% by weight to 50% by weight. As buffer solutions, a boric acid buffer solution, and a phosphoric acid buffer solution and a citric acid buffer solution were used.
A 50 mM phosphoric acid buffer solution, a 50 mM citric acid buffer solution, or a 25 mM boric acid-borax buffer solution (all of which were final concentrations) was prepared, and thereafter, about 0.9% sodium chloride, about 0.1% EDTA, 0.01% benzalkonium chloride (all of which were final concentrations), and various concentrations of nonionic surfactants (Tween 80 or Polyoxyethylene (7) alkyl (sec-C11-15) ethers) were mixed into the solution. […] In the case of using a citric acid buffer solution, the pH value of the mixed solution was adjusted using hydrochloric acid under conditions of pH 2.6 or less. In the case of using boric acid, the pH value was adjusted using hydrochloric acid under conditions of pH 5.7 or less. […] The thus prepared solutions were continuously blended for about 2 hours, and the pH value thereof was measured at 25° C.

| Structure (SMILES) | Drug amount detected in retina [1] | pH at which solubilization of rifampicin does not need addition of a surfactant ([…]) | rifampicin concentration whose solubilization did not need addition of a surfactant (pH range of pH 2 to pH 12) | Drug amount detected in retina ([2]; 3 drops (15 μL, 37.5 μg)) | Drug amount detected in retina ([2]; 10 drops (50 μL, 125 μg)) | Rifampicin extracted from retina ([2]; 3 drops (5 μL each, 30 min intervals) of 0.25% rifampicin eye drops (Example 1A) per eye) | Rifampicin extracted from retina ([2]; 10 drops (5 μL each, 30 min intervals) of 0.25% rifampicin eye drops (Example 1A) per eye) | Average numbers of capillaries in high power field per eye ([3]; 0.25% AMD101 topical eye drop (Example 1A), three times a day P15 to P19) | Average numbers of capillaries in high power field per eye ([3]; 0.5% AMD101 SC injection (Example 6A), 20 mg/Kg once a day P15 to P19) | nonionic surfactant addition by which the composition is solubilized (from relational expression) ([4]; pH 3.0) | nonionic surfactant addition by which the composition is solubilized (from relational expression) ([4]; pH 4.0) |
| --- | --- | --- | --- | --- | --- | --- | --- | --- | --- | --- | --- |
| C[C@@H]1C[C@H]2[C@@H]3CCC4=CC(=O)C=C[C@]4(C)[C@@]3(F)[C@@H](O)C[C@]2(C)[C@@]1(O)C(=O)CO [Dexamethasone] | About 33 ng/1 g of ng/1 g of retinal tissues | – | – | – | – | – | – | – | – | – | – |
| CO[C@H]1/C=C/O[C@@]2(C)Oc3c(C)c(O)c4c(O)c(c(/C=N/N5CCN(C)CC5)c(O)c4c3C2=O)NC(=O)/C(C)=C\C=C\[C@H](C)[C@H](O)[C@@H](C)[C@@H](O)[C@@H](C)[C@H](OC(C)=O)[C@@H]1C [rifampicin] | – | ≥ 8.5 | ≤ 0.002 % by weight | About 1,288 ng/1 g of ng/1 g of retinal tissues | About 2,939 ng/1 g of ng/1 g of retinal tissues | 1,288* ng/1 g of tissues | 2,939* ng/1 g of tissues | 7.78 | 9.28 | about 8.2% | about 10.7% |
